Assay results reported in patent US20260216238A1, “TETRATHIOMOLYBDIC ACID FOR USE IN TREATING COPPER METABOLISM-ASSOCIATED DISEASES OR DISORDERS (WILSON DISEASE)” (Alexion Pharmaceuticals, Inc., priority 2023, published 2026).

Tests used:
[1] = test system: patients with Wilson disease (WD); test: Clinical Global Impression-Severity scale (CGI-S); format: in vivo, human; details: for CGI-S (1 to 7, 1 is normal) change from baseline, LSM / CGI-S (1 to 7, 1 is normal) change from baseline, Mean: Study 301 TTM long term set
Excerpt: Clinical Global Impression-[…]: The Clinical Global Impression (CGI) rating scales were commonly used measures of symptom severity, treatment response, and the efficacy of treatments in treatment studies of adult and pediatric patients with mental disorders.
The Clinical Global Impression-Severity scale (CGI-S) is a 7-point scale that requires the clinician to rate the severity of the patient's illness at the time of assessment, relative to the clinician's past experience with patients who have the same diagnosis. Considering total clinical experience, a patient was assessed on severity of illness at the time of rating as: 1, normal, not at all ill; 2, borderline ill; 3, mildly ill; 4, moderately ill; 5, markedly ill; 6, severely ill; or 7, extremely ill.

[2] = test system: participants with cirrhosis at baseline
Excerpt: Study 205 is registered with ClinicalTrials.gov, number NCT04422431, and incorporated by reference in its entirety.

[3] = test system: patients with Wilson disease (WD); details: FIG. 23; TTM versus SoC chelator therapy
Excerpt: Urine samples were collected for analysis of urine copper and molybdenum.

patients with WD = details: cited from earlier work
[4] = Subpopulation E, Baseline, TTM N=104, SoC N=56
[5] = Subpopulation E, Week 48, TTM N=89, SoC N=47

bis-choline tetrathiomolybdate [TTM]
CGI-S (1-7, 1 is normal), Change from Baseline at 48 weeks, LSM ([1]; Study 301 Full Analysis Set): −0.3 | CGI-S (1-7, 1 is normal), Change from Baseline at 48 weeks, Mean ([1]; Study 301 Full Analysis Set): −0.5 | CGI-S, Max [1, 4]: 6 | CGI-S, Mean [1, 4]: 2.9 | CGI-S, Min [1, 4]: 1, | CGI-S, Change from Baseline, LSM ([1]; Subpopulation E, Week 48): −0.4 | CGI-S, Change from Baseline, LSM Diff (SE) (TTM vs SoC) ([1]; Subpopulation E, Week 48): −0.2 (0.13) | CGI-S, Change from Baseline, Max [1, 5]: 1 | CGI-S, Change from Baseline, Mean [1, 5]: −0.4 | CGI-S, Change from Baseline, Median [1, 5]: 0.0 | CGI-S, Change from Baseline, Min [1, 5]: −3, | CGI-S, Change from Baseline, Q1 [1, 5]: −1.0, | CGI-S, Change from Baseline, Q3 [1, 5]: 0.0 | CGI-S, Difference at 48 weeks, LSM ([1]; TTM vs SoC, P 0.2290): −0.2 | CGI-S (1 to 7, 1 is normal) change from baseline, LSM ([1]; Week 24): −0.3 | CGI-S (1 to 7, 1 is normal) change from baseline, Mean ([1]; Week 24): −0.2 | CGI-S (1 to 7, 1 is normal) change from baseline, LSM ([1]; Week 48): −0.4 | CGI-S (1 to 7, 1 is normal) change from baseline, Mean ([1]; Week 48): −0.5 | CGI-S (1 to 7, 1 is normal) change from baseline, LSM ([1]; Week 72): −0.5 | CGI-S (1 to 7, 1 is normal) change from baseline, Mean ([1]; Week 72): −0.6 | CGI-S (1 to 7, 1 is normal) change from baseline, LSM ([1]; Week 96): −0.5 | CGI-S (1 to 7, 1 is normal) change from baseline, Mean ([1]; Week 96): −0.6 | CGI-S (1 to 7, 1 is normal) change from baseline, LSM ([1]; Week 120): −0.7 | CGI-S (1 to 7, 1 is normal) change from baseline, Mean ([1]; Week 120): −0.6 | CGI-S (1 to 7, 1 is normal) change from baseline, LSM ([1]; Week 144): −0.6 | CGI-S (1 to 7, 1 is normal) change from baseline, Mean ([1]; Week 144): −0.6 | participants with cirrhosis at baseline who maintained liver function (albumin levels) ([2]; in vivo): 87% | cirrhotic participants whose albumin levels returned to the normal range ([2]; of the 13 who experienced changes in liver function): 7 participants | 24-hour urinary copper [3]: lower with TTM than SoC chelator therapy | reduction of mean serum cNCCcorrected compared with baseline (patients with WD; Study 201, Week 24, p<0.0001): 72% | patients with reversible liver function test elevations (patients with WD; human, in vivo): 39%
